According to PubChem BioAssay AID1963447 (Molecular Pharmacology Branch, DTP, NCI, 2024):

Test system: 885512-296-R-J2-PDC complex spheroid growth, % test/control
Experiment: Anticancer human tumor 885512-296-R-J2-PDC patient-derived breast carcinoma cell line growth inhibition [Asc]
Conditions: for IC50: curve of first compound; for viability, T/C: stronger effect = lower value
How it was run: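 Complex spheroids combining tumor cells with HUVEC endothelial cells and human MSCs, at 37 degrees C, 5% CO2; agents tested alone or combined, half-log dilutions from at or near clinical Cmax, or 10 microM if Cmax unknown.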

[1] = second compound 0.03 µM, first compound 0.00316 µM
[2] = second compound 0.03 µM, first compound 0.01 µM
[3] = second compound 0.03 µM, first compound 0.0316 µM
[4] = second compound 0.03 µM, first compound 0.1 µM
[5] = second compound 0.03 µM, first compound 0.316 µM
[6] = second compound 0.03 µM, first compound 1 µM
[7] = second compound 0.0949 µM, first compound 0.00316 µM
[8] = second compound 0.0949 µM, first compound 0.01 µM
[9] = second compound 0.0949 µM, first compound 0.0316 µM
[10] = second compound 0.0949 µM, first compound 0.1 µM
[11] = second compound 0.0949 µM, first compound 0.316 µM
[12] = second compound 0.0949 µM, first compound 1 µM
[13] = second compound 0.3 µM, first compound 0.00316 µM
[14] = second compound 0.3 µM, first compound 0.01 µM
[15] = second compound 0.3 µM, first compound 0.0316 µM
[16] = second compound 0.3 µM, first compound 0.1 µM
[17] = second compound 0.3 µM, first compound 0.316 µM
[18] = second compound 0.3 µM, first compound 1 µM
[19] = second compound 0.949 µM, first compound 0.00316 µM
[20] = second compound 0.949 µM, first compound 0.01 µM
[21] = second compound 0.949 µM, first compound 0.0316 µM
[22] = second compound 0.949 µM, first compound 0.1 µM
[23] = second compound 0.949 µM, first compound 0.316 µM
[24] = second compound 0.949 µM, first compound 1 µM
[25] = second compound 3 µM, first compound 0.00316 µM
[26] = second compound 3 µM, first compound 0.01 µM
[27] = second compound 3 µM, first compound 0.0316 µM
[28] = second compound 3 µM, first compound 0.1 µM
[29] = second compound 3 µM, first compound 0.316 µM
[30] = second compound 3 µM, first compound 1 µM
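Further: spheroids exposed to compounds for seven days.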
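Wherever viability, T/C is given: 100% = DMSO vehicle control wells.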

Cc1nc(N2CCC3(CC2)COC(C)C3N)c(CO)nc1Sc1ccnc(N)c1Cl (stereo not given) + Cc1c(S(C)(=O)=O)c(-c2cc(F)cc(N3CCN(c4ccc(NS(=O)(=O)c5ccc(NC(CCN6CCC(C(=O)OCCCP(=O)(O)O)CC6)CSc6ccccc6)c(S(=O)(=O)C(F)(F)F)c5)cc4)CC3)c2)c(-c2ccc(Cl)cc2)n1C(C)C
IC50 (second compound 0.1 µM): 275 nM
IC50 (second compound 0.316 µM): 275 nM
IC50 (second compound 1 µM): 172 nM
IC50 (second compound 3.16 µM): 167 nM
IC50 (second compound 10 µM): > 3000 nM
viability, T/C (second compound 0.1 µM, first compound 0.00949 µM): 83.7%
viability, T/C (second compound 0.1 µM, first compound 0.03 µM): 67.7%
viability, T/C (second compound 0.1 µM, first compound 0.0949 µM): 58%
viability, T/C (second compound 0.1 µM, first compound 0.3 µM): 50.4%
viability, T/C (second compound 0.1 µM, first compound 0.949 µM): 42.1%
viability, T/C (second compound 0.1 µM, first compound 3 µM): 32.4%
viability, T/C (second compound 0.316 µM, first compound 0.00949 µM): 76.5%
viability, T/C (second compound 0.316 µM, first compound 0.03 µM): 63.7%
viability, T/C (second compound 0.316 µM, first compound 0.0949 µM): 62.7%
viability, T/C (second compound 0.316 µM, first compound 0.3 µM): 46.2%
viability, T/C (second compound 0.316 µM, first compound 0.949 µM): 42.8%
viability, T/C (second compound 0.316 µM, first compound 3 µM): 37%
viability, T/C (second compound 1 µM, first compound 0.00949 µM): 76.7%
viability, T/C (second compound 1 µM, first compound 0.03 µM): 60.2%
viability, T/C (second compound 1 µM, first compound 0.0949 µM): 59.1%
viability, T/C (second compound 1 µM, first compound 0.3 µM): 41.8%
viability, T/C (second compound 1 µM, first compound 0.949 µM): 42.6%
viability, T/C (second compound 1 µM, first compound 3 µM): 34.7%
viability, T/C (second compound 3.16 µM, first compound 0.00949 µM): 94.5%
viability, T/C (second compound 3.16 µM, first compound 0.03 µM): 67.4%
viability, T/C (second compound 3.16 µM, first compound 0.0949 µM): 56.8%
viability, T/C (second compound 3.16 µM, first compound 0.3 µM): 45.4%
viability, T/C (second compound 3.16 µM, first compound 0.949 µM): 39.5%
viability, T/C (second compound 3.16 µM, first compound 3 µM): 33.4%
viability, T/C (second compound 10 µM, first compound 0.00949 µM): 117%
viability, T/C (second compound 10 µM, first compound 0.03 µM): 110%
viability, T/C (second compound 10 µM, first compound 0.0949 µM): 96.2%
viability, T/C (second compound 10 µM, first compound 0.3 µM): 113%
viability, T/C (second compound 10 µM, first compound 0.949 µM): 95.9%
viability, T/C (second compound 10 µM, first compound 3 µM): 85.9%

COc1c(OCCCN2CCOCC2)ccc2c3n(c(=NC(=O)c4cnc(N)nc4)nc12)CCN3 + CCN1C(C(=O)NC23CCC(C(=O)O)(CC2)CC3)C(c2cccc(Cl)c2F)C2(C(=O)Nc3cc(Cl)ccc32)C12CCCCC2
IC50 (second compound 0.03 µM): 285 nM
IC50 (second compound 0.0949 µM): 259 nM
IC50 (second compound 0.3 µM): 204 nM
IC50 (second compound 0.949 µM): 126 nM
IC50 (second compound 3 µM): < 3.16 nM
viability, T/C [1]: 80.1%
viability, T/C [2]: 87.9%
viability, T/C [3]: 93.5%
viability, T/C [4]: 72.6%
viability, T/C [5]: 48.3%
viability, T/C [6]: 6.36%
viability, T/C [7]: 73.7%
viability, T/C [8]: 88.1%
viability, T/C [9]: 79.8%
viability, T/C [10]: 64.7%
viability, T/C [11]: 47.4%
viability, T/C [12]: 6.12%
viability, T/C [13]: 82.7%
viability, T/C [14]: 68.5%
viability, T/C [15]: 80.1%
viability, T/C [16]: 63.2%
viability, T/C [17]: 41.2%
viability, T/C [18]: 6.26%
viability, T/C [19]: 61.5%
viability, T/C [20]: 54.5%
viability, T/C [21]: 64.4%
viability, T/C [22]: 50%
viability, T/C [23]: 38.8%
viability, T/C [24]: 6.82%
viability, T/C [25]: 47.1%
viability, T/C [26]: 32.4%
viability, T/C [27]: 28.6%
viability, T/C [28]: 35.4%
viability, T/C [29]: 32.6%
viability, T/C [30]: 6.56%

CNC(C)C(=O)NC1CN(S(=O)(=O)c2cccc(S(=O)(=O)N3CCC4CCC(C(=O)NC(c5ccccc5)c5ccccc5)N4C(=O)C(NC(=O)C(C)NC)C3)c2)CCC2CCC(C(=O)NC(c3ccccc3)c3ccccc3)N2C1=O (stereo not given) + CCN1C(C(=O)NC23CCC(C(=O)O)(CC2)CC3)C(c2cccc(Cl)c2F)C2(C(=O)Nc3cc(Cl)ccc32)C12CCCCC2
IC50 (second compound 0.03 µM): > 1000 nM
IC50 (second compound 0.0949 µM): > 1000 nM
IC50 (second compound 0.3 µM): > 1000 nM
IC50 (second compound 0.949 µM): > 1000 nM
IC50 (second compound 3 µM): < 3.16 nM
viability, T/C [1]: 92.3%
viability, T/C [2]: 90.4%
viability, T/C [3]: 99.8%
viability, T/C [4]: 94.2%
viability, T/C [5]: 126%
viability, T/C [6]: 109%
viability, T/C [7]: 77.6%
viability, T/C [8]: 110%
viability, T/C [9]: 90.3%
viability, T/C [10]: 112%
viability, T/C [11]: 120%
viability, T/C [12]: 115%
viability, T/C [13]: 84.3%
viability, T/C [14]: 88.7%
viability, T/C [15]: 91.6%
viability, T/C [16]: 93%
viability, T/C [17]: 103%
viability, T/C [18]: 112%
viability, T/C [19]: 75.3%
viability, T/C [20]: 72.8%
viability, T/C [21]: 76.6%
viability, T/C [22]: 87.6%
viability, T/C [23]: 91.9%
viability, T/C [24]: 86.6%
viability, T/C [25]: 41.4%
viability, T/C [26]: 37.4%
viability, T/C [27]: 49%
viability, T/C [28]: 59.5%
viability, T/C [29]: 59%
viability, T/C [30]: 62.6%
